BindingDB's records for doi:10.1016/j.bmcl.2003.08.056 (Merck Research Laboratories, 2003)

Experiments:
[1] = biological target: T1, cGMP-inhibited 3',5'-cyclic phosphodiesterase 3A [388-1112] (Homo sapiens, UniProt Q14432); assay: PDE SPA Enzyme Inhibition Assay
T1 construct: 388-1112
Procedure: (§1) PDE activity was monitored by measuring the hydrolysis of [3H]-cAMP to [3H]-AMP using scintillation proximity assay (SPA). [3H]-AMP was captured by the SPA beads, and quantified on a TopCount plate reader. Data was analyzed in Graph Pad Prism software.

[2] = biological target: T2, cGMP-inhibited 3',5'-cyclic phosphodiesterase 3B [387-1112] (Homo sapiens, UniProt Q13370); assay: PDE SPA Enzyme Inhibition Assay
T2 construct: 387-1112
Procedure: as §1

T2 sequence (Q13370 387-1112): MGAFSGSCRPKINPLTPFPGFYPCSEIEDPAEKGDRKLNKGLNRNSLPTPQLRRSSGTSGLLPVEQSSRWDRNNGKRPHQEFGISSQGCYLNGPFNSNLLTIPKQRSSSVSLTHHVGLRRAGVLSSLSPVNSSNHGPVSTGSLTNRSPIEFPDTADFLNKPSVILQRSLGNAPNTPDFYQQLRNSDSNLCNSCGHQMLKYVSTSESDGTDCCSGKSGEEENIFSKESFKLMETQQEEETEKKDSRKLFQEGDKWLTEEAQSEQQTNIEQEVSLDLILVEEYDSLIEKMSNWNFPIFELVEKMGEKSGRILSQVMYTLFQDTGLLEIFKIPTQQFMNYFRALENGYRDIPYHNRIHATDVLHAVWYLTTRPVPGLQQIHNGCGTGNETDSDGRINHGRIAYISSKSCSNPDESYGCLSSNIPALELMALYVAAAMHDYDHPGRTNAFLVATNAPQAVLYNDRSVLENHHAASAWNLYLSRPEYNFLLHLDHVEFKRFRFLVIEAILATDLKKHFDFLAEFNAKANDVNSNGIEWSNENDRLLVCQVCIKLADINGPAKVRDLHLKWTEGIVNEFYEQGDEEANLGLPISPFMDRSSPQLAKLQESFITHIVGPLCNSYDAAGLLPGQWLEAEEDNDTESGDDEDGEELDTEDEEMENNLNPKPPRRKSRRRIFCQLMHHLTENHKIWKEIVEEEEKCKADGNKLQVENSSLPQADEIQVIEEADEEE
T1 sequence (Q14432 388-1112): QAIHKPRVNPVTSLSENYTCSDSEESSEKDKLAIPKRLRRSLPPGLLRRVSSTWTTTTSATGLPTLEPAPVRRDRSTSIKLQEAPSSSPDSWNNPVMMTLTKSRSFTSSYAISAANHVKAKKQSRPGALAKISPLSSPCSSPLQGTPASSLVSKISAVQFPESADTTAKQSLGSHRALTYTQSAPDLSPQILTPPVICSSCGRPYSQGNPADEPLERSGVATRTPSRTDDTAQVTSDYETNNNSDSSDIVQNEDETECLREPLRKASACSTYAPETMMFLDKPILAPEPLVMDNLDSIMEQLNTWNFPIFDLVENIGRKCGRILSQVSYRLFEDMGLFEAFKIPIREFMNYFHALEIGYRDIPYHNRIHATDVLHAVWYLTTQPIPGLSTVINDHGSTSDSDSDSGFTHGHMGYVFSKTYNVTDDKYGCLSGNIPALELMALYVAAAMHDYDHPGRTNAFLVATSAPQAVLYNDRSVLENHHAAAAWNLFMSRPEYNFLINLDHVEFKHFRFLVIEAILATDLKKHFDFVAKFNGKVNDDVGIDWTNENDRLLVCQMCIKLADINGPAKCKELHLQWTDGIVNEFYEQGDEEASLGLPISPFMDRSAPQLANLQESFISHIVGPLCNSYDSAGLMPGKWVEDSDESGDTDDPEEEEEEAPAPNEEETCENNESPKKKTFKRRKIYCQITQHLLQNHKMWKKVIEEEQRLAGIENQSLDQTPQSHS

| IC50 [1] | IC50 [2] | IC50 ([2]; pH 7.5, 22 °C) | Compound |
| --- | --- | --- | --- |
| 7.6 nM | 0.33 nM | – | CC1(C)C(=O)NN=C1c1ccc(NC2=C(Cc3cccc(C#N)c3)C(=O)CCC2)c(F)c1F [3-[(2-{[4-(4,4-dimethyl-5-oxo-4,5-dihydro-1H-pyrazol-3-yl)-2,3-difluorophenyl]amino}-6-oxocyclohex-1-en-1-yl)methyl]benzonitrile] |
| 1.2 nM | 0.26 nM | – | CC1CC(=O)NN=C1c1ccc(NC2=C(Cc3ccccc3)C(=O)CCC2)c(F)c1 (stereo not given) [6-{4-[(2-benzyl-3-oxocyclohex-1-en-1-yl)amino]-3-fluorophenyl}-5-methyl-2,3,4,5-tetrahydropyridazin-3-one] |
| 3.7 nM | 0.61 nM | – | Cc1cc(C2=NNC(=O)CC2C)ccc1NC1=C(Cc2ccccc2)C(=O)CCC1 (stereo not given) [6-{4-[(2-benzyl-3-oxocyclohex-1-en-1-yl)amino]-3-methylphenyl}-5-methyl-2,3,4,5-tetrahydropyridazin-3-one] |
| 0.11 nM | – | 0.049 nM | C[C@@H]1CC(=O)NN=C1c1ccc(NC2=C(Cc3cccc(-c4cccc([N+](=O)[O-])c4)c3)C(=O)CCC2)cc1 [(5R)-5-methyl-6-{4-[(2-{[3-(3-nitrophenyl)phenyl]methyl}-3-oxocyclohex-1-en-1-yl)amino]phenyl}-2,3,4,5-tetrahydropyridazin-3-one] |
| 0.11 nM | – | 0.068 nM | C[C@@H]1CC(=O)NN=C1c1ccc(NC2=C(Cc3cccc(-c4ccsc4)c3)C(=O)CCC2)cc1 [(5R)-5-methyl-6-{4-[(3-oxo-2-{[3-(thiophen-3-yl)phenyl]methyl}cyclohex-1-en-1-yl)amino]phenyl}-2,3,4,5-tetrahydropyridazin-3-one] |
